{"source": "patent US20130281512A1", "about": "“AGENTS FOR TREATING DISORDERS INVOLVING MODULATION OF RYANODINE RECEPTORS” (LES LABORATOIRES SERVIER, priority 2012, published 2013)", "target": "T1, PKA-phosphorylated RyR2 (Homo sapiens, UniProt Q92736)", "T1 construct": "Cardiac SR membranes were prepared as previously described; from tissue; host or cells: cardiac sarcoplasmic reticulum (heart muscle microsomes)", "T1 sequence (Q92736 whole entry)": "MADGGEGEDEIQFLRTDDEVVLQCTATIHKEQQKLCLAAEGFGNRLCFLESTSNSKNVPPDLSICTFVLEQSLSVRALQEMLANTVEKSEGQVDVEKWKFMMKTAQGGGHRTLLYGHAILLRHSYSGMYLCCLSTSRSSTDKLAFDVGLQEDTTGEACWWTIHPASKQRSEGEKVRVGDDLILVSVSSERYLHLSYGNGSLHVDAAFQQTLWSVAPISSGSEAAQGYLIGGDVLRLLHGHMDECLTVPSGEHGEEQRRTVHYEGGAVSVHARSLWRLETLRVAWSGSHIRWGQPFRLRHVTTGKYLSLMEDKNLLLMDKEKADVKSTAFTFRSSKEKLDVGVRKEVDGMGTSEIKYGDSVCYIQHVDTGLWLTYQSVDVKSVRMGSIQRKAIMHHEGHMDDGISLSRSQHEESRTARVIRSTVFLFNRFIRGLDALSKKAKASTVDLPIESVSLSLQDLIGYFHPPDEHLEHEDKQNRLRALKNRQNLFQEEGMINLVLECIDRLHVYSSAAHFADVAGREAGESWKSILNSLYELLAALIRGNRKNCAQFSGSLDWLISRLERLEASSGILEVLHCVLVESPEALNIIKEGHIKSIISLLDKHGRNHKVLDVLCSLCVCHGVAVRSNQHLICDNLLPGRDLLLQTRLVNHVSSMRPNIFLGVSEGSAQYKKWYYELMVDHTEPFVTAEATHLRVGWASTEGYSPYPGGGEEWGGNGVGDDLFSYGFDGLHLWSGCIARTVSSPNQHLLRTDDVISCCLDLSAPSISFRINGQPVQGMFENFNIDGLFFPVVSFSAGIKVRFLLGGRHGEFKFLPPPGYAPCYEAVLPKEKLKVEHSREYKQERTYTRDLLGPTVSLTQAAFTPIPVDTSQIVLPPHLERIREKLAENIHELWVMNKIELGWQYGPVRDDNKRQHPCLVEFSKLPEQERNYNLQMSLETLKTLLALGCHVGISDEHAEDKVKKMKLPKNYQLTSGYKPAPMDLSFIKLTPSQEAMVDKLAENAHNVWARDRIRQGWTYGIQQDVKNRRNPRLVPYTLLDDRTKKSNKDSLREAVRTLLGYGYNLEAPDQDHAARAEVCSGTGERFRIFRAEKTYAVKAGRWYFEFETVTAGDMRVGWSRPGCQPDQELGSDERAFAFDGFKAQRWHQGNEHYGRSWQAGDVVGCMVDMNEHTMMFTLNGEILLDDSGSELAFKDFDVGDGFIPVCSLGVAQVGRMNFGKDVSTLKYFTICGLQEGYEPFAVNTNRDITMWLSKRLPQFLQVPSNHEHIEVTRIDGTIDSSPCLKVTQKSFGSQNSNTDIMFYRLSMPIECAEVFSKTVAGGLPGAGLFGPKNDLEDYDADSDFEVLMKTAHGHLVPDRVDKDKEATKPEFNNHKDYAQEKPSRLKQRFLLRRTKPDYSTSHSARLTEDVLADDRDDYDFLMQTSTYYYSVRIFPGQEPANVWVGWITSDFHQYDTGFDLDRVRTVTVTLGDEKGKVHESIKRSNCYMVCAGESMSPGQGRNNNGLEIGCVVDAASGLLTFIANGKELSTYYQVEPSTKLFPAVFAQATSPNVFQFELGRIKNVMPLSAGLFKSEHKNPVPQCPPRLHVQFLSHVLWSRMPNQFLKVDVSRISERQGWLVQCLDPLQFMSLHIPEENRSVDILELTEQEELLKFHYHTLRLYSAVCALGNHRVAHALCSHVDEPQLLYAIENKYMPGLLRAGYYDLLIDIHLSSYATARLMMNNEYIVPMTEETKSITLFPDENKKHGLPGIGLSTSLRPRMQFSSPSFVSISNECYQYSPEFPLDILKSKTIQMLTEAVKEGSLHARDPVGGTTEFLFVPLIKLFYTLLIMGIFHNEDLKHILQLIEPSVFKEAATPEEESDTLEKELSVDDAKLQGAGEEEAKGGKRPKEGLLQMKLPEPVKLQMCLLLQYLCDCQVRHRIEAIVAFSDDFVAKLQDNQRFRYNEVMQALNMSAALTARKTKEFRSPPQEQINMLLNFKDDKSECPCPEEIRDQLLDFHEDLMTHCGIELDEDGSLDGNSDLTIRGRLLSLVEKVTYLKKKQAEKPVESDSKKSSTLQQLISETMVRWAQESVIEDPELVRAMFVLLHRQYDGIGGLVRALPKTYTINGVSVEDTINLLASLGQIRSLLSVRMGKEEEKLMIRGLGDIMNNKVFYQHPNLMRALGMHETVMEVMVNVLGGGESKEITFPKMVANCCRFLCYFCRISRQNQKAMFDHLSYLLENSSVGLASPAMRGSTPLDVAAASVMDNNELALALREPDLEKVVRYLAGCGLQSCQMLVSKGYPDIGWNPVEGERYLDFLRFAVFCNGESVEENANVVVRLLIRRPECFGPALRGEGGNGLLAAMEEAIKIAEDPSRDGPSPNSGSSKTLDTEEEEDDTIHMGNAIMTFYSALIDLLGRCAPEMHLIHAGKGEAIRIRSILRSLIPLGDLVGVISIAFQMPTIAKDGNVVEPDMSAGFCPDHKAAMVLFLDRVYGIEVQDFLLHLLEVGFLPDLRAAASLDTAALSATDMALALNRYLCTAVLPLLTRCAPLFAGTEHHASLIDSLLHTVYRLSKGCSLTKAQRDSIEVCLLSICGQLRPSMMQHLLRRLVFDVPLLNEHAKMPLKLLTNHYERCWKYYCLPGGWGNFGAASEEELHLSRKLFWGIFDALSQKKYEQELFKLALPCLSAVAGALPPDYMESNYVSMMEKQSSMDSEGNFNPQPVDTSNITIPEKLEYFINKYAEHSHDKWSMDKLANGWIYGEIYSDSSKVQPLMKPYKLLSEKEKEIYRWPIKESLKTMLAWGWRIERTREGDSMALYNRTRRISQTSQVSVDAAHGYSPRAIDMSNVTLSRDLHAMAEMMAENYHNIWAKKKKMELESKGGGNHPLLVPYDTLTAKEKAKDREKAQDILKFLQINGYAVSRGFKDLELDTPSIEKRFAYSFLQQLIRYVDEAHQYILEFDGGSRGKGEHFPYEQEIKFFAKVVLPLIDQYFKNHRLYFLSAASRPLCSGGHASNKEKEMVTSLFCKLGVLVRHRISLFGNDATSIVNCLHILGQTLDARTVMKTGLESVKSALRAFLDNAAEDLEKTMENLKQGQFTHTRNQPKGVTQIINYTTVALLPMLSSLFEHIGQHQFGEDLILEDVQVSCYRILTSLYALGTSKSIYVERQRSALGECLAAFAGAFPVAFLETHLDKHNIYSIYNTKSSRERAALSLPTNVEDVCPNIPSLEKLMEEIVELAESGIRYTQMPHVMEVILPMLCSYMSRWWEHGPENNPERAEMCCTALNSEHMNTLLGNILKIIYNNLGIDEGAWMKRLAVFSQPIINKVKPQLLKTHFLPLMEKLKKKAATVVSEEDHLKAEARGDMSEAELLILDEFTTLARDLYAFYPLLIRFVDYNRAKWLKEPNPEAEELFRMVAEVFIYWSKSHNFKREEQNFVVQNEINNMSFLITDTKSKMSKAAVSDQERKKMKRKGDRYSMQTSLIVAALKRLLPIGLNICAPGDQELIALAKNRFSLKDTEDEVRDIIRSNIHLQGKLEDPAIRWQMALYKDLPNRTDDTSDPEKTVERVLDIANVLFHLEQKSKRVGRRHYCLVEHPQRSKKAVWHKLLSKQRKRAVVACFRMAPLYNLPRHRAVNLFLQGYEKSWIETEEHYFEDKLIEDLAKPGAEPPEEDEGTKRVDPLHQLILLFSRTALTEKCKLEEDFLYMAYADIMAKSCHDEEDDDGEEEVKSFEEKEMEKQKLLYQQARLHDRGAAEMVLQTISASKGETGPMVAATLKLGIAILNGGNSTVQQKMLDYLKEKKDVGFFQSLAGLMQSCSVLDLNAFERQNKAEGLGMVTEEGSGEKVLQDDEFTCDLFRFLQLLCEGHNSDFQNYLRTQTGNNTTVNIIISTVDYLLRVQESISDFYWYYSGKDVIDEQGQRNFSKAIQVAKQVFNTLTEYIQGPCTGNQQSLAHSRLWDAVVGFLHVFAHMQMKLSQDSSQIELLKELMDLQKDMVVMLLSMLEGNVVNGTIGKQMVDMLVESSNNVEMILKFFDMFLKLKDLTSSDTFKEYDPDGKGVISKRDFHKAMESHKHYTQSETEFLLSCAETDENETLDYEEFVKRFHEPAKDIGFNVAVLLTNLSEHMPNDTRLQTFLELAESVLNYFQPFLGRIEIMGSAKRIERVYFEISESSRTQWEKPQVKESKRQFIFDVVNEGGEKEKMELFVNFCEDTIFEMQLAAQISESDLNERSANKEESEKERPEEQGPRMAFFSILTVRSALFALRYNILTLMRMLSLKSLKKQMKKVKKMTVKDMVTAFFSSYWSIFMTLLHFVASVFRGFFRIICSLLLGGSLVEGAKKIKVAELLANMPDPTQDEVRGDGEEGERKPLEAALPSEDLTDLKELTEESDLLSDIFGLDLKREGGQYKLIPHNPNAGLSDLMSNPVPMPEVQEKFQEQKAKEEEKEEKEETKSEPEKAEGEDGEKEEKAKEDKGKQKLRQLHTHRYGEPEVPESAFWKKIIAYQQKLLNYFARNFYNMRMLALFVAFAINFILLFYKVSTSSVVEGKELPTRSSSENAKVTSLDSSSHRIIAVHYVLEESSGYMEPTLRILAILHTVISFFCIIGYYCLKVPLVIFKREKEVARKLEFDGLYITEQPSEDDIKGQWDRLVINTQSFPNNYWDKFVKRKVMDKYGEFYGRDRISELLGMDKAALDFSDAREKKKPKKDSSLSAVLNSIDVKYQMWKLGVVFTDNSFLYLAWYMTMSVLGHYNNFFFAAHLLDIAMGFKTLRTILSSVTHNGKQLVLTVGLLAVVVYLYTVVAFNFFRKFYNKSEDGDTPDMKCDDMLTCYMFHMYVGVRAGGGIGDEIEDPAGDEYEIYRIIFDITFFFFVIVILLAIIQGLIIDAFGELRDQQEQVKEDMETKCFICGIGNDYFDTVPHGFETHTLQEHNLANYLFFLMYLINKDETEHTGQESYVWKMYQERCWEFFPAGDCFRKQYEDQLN", "T1 sequence (P68106 whole entry partner)": "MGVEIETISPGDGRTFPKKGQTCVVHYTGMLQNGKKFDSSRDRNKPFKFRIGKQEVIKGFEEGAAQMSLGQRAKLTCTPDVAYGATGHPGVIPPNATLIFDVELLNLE", "test": "Calstabin2 rebinding assay: binding of calstabin2 to PKA-phosphorylated RyR2 (cardiac SR, immunoblot)", "conditions": "100 nM compound; immunoblot with calstabin2 antibody", "description": "Cardiac SR membranes were prepared as previously described (Marx et al., 2000; Kaftan et al., Circ. Res., 1996, 78:990-97). Immunoblotting of microsomes (50 μg) was performed as described, with anti-calstabin antibody (1:1,000) (Jayaraman et al., J. Biol. Chem., 1992, 267:9474-77) for 1 hr at room temperature (Reiken et al., Circulation, 107:2459-66, 2003). After incubation with HRP-labeled anti-rabbit IgG (1:5,000 dilution; Transduction Laboratories, Lexington, Ky.), the blots were developed using ECL (Amersham Pharmacia, Piscataway, N.J.) and detected on x-ray film, or exposed to secondary antibodies labeled with infrared Dye and visualized on equipment from Li-Cor Biosciences (model Odyssey). Unless otherwise stated, compounds were tested at a concentration of 100 nM. A representative calstabin2 binding assay is presented below.\nA. PKA phosphorylation of cardiac sarcoplasmic reticulum (CSR)\nB. Reaction mixture was set up in 1.5 ml microfuge tube. 200 μg of cardiac SR were added to a reaction mix of kinase buffer, PKA and ATP to a final volume of 100 (Reaction mix below). ATP was added last to initiate the reaction.\n20 μl Sample (cardiac SR, 2 or 10 μg/μl) 10 μl=10× Kinase buffer (80 mM MgCl2, 100 mM EGTA, 500 mM Tris/PIPES), pH=7.0\n20 μl PKA (2units/ul) (Sigma # P2645)\n40 μl=distilled H2O • 1. The tubes were incubated at 30° C. for 30 minutes. • 2. The reaction mix was then transferred to 0.5 ml thick walled glass tubes. • 3. The glass tubes containing the reaction mix were centrifuged for 10 min at 50,000×g in Sorvall Centrifuge RCM120EX using S120AT3 rotor. Centrifugation at 50,000×g for 10 min is sufficient to isolate the microsomes. • 4. The resulting pellet was washed 4 times with binding buffer (10 mM Imidazol 300 mM Sucrose, pH=7.4). Each time 100111 of 1× binding buffer was added to the tube to wash the pellet. The pellet was resuspended by flushing up and down using the pipette tip. After the last spin 501.11 of binding buffer was added and the pellets from all tubes were pooled. The reaction was stored at −20° C. • 5. Phosphorylation was confirmed by separating approximately 10 μg of CSR by 6% Polyacylamide gel electrophoresis (PAGE) and analyzing the immunoblots for both total RyR (5029 Ab, 1:3000 dilution or Monoclonal Ab from Affinity Bioreagents, Cat # MA3-916, 1:2000 dilution) and PKA phosphorylated RyR2 (P2809 Ab, 1:10000 dilution). • 6. Aliquots can be stored at −80 C.\nC. Calstabin Rebinding Assay\n• 1. PKA-phosphorylated CSR (approximately 20 μg) was incubated with 250 nM Calstabin 2 in 100111 binding buffer (as described above) with or without compounds. • 2. […] Calstabin2 binding was detected with anti-FKBP (Jayaraman et al., J. Biol. Chem. 1992; 267:9474-77, 1:2000) primary antibody and appropriate secondary antibody.", "data": [{"compound": "COc1ccc2c(c1)CN(Cc1ccc(C(=O)O)cc1)CCS2", "note": "[Compound 1, 4-((7-Methoxy-2,3-dihydrobenzo[f][1,4]thiazepin-4(5H)-yl)methyl)benzoic acid]", "values": [{"measurement": "binding of calstabin2 to PKA-phosphorylated RyR2", "value": "prevented the dissociation of calstabin2 from PKA-phosphorylated RyR2 and/or enhanced the (re)binding of calstabin2 to PKA-phosphorylated RyR"}]}]}
